From the NIST ThermoML archive (doi:10.1021/je8003782)
Several values for one entry are separate records, joined by “and”; a condition that tells them apart may be missing. Equal values may be shown once. Numbers after ± are expanded uncertainties.

Experiments:
[1] = 101.3 kPa, Liquid
[2] = xn = mol fraction of the nth substance listed; details: 101 kPa, Liquid

CC(=O)O [acetic acid]
[1]
Details	mass density	viscosity
293.15 K	1049.42 ± 0.86 kg/m3 and 1049.42 ± 1.7 kg/m3	1.204 ± 0.017 mPa·s and 1.204 ± 0.029 mPa·s
298.15 K	1043.76 ± 0.82 kg/m3 and 1043.76 ± 1.6 kg/m3	1.114 ± 0.016 mPa·s and 1.114 ± 0.027 mPa·s
303.15 K	1038.1 ± 0.79 kg/m3 and 1038.1 ± 1.5 kg/m3	1.037 ± 0.016 mPa·s and 1.037 ± 0.026 mPa·s
308.15 K	1032.44 ± 0.75 kg/m3 and 1032.44 ± 1.4 kg/m3	0.964 ± 0.015 mPa·s and 0.964 ± 0.024 mPa·s
313.15 K	1026.77 ± 0.72 kg/m3 and 1026.77 ± 1.4 kg/m3	0.902 ± 0.015 mPa·s and 0.902 ± 0.023 mPa·s
318.15 K	1021.11 ± 0.68 kg/m3 and 1021.11 ± 1.3 kg/m3	0.841 ± 0.014 mPa·s and 0.841 ± 0.022 mPa·s
323.15 K	1015.44 ± 0.64 kg/m3 and 1015.44 ± 1.2 kg/m3	0.787 ± 0.014 mPa·s and 0.787 ± 0.021 mPa·s
328.15 K	1009.77 ± 0.61 kg/m3 and 1009.77 ± 1.2 kg/m3	0.741 ± 0.013 mPa·s and 0.741 ± 0.02 mPa·s
333.15 K	1004.09 ± 0.57 kg/m3 and 1004.09 ± 1.1 kg/m3	0.697 ± 0.013 mPa·s and 0.697 ± 0.019 mPa·s
338.15 K	998.38 ± 0.56 kg/m3	0.657 ± 0.013 mPa·s

CC(=O)O [acetic acid] + C1N2CN3CN1CN(C2)C3
[2], x2 = 0
Details	mass density [kg/m3]	viscosity [mPa·s]
293.15 K	1049.42 ± 1.7	1.204 ± 0.029
298.15 K	1043.76 ± 1.6	1.114 ± 0.027
303.15 K	1038.1 ± 1.5	1.037 ± 0.026
308.15 K	1032.44 ± 1.4	0.964 ± 0.024
313.15 K	1026.77 ± 1.4	0.902 ± 0.023
318.15 K	1021.11 ± 1.3	0.841 ± 0.022
323.15 K	1015.44 ± 1.2	0.787 ± 0.021
328.15 K	1009.77 ± 1.2	0.741 ± 0.02
333.15 K	1004.09 ± 1.1	0.697 ± 0.019

CC(=O)O [acetic acid] + CC(=O)OC(C)=O
[2], x1 = 1
Details	mass density [kg/m3]	viscosity [mPa·s]
293.15 K	1049.42 ± 0.86	1.204 ± 0.017
298.15 K	1043.76 ± 0.82	1.114 ± 0.016
303.15 K	1038.1 ± 0.79	1.037 ± 0.016
308.15 K	1032.44 ± 0.75	0.964 ± 0.015
313.15 K	1026.77 ± 0.72	0.902 ± 0.015
318.15 K	1021.11 ± 0.68	0.841 ± 0.014
323.15 K	1015.44 ± 0.64	0.787 ± 0.014
328.15 K	1009.77 ± 0.61	0.741 ± 0.013
333.15 K	1004.09 ± 0.57	0.697 ± 0.013
338.15 K	998.38 ± 0.56	0.657 ± 0.013

CC(=O)OC(C)=O [ethanoic anhydride]
[1]
Details	mass density [kg/m3]	viscosity [mPa·s]
293.15 K	1080.89 ± 1.5	0.888 ± 0.016
298.15 K	1074.8 ± 1.5	0.829 ± 0.015
303.15 K	1068.7 ± 1.4	0.778 ± 0.015
308.15 K	1062.61 ± 1.4	0.729 ± 0.014
313.15 K	1056.49 ± 1.4	0.688 ± 0.014
318.15 K	1050.38 ± 1.3	0.648 ± 0.014
323.15 K	1044.24 ± 1.3	0.61 ± 0.013
328.15 K	1038.07 ± 1.2	0.58 ± 0.013
333.15 K	1031.9 ± 1.2	0.548 ± 0.013
338.15 K	1025.7 ± 1.1	0.521 ± 0.013
